Values joined by “and” are separate entries in the source; they are usually repeats but may differ in a detail not shown here. Equal values may be shown once.
Experiment: xn = mol fraction of the nth substance listed
Conditions: 100 kPa, Liquid; for viscosity: Concentric cylinders viscometry; for mass density: Vibrating tube method; for electrical conductivity: Alternating current cell with electrodes

CCCCCCCCOS(=O)(=O)[O-].CCn1cc[n+](C)c1 [1-ethyl-3-methylimidazolium octyl sulfate] + O
Conditions	electrical conductivity	mass density	viscosity
293.1 K, x1 = 0.1197	–	1069.2 kg/m3	–
293.1 K, x1 = 0.1402	–	1072.6 kg/m3	–
293.1 K, x1 = 0.1605	–	1076.1 kg/m3 and 1076.2 kg/m3	–
293.1 K, x1 = 0.2632	–	1085.4 kg/m3	–
293.1 K, x1 = 0.3076	–	1087.6 kg/m3	–
293.1 K, x1 = 0.3555	–	1089.2 kg/m3	136.9 mPa·s
293.1 K, x1 = 0.4108	–	1091.1 kg/m3	154.7 mPa·s
294.1 K, x1 = 0.1402	–	1072 kg/m3	66.11 mPa·s
294.1 K, x1 = 0.1766	1 S/m	–	–
294.1 K, x1 = 0.2119	0.826 S/m and 0.828 S/m	–	–
294.1 K, x1 = 0.2632	0.585 S/m	–	–
295.1 K, x1 = 0.0803	1.81 S/m	–	–
295.1 K, x1 = 0.1402	–	1071.3 kg/m3	62.58 mPa·s
295.1 K, x1 = 0.1766	1.03 S/m	–	–
295.1 K, x1 = 0.2119	0.85 S/m and 0.852 S/m	–	–
295.1 K, x1 = 0.2632	0.606 S/m	–	–
295.1 K, x1 = 0.3555	0.387 S/m and 0.389 S/m	–	–
295.1 K, x1 = 0.4108	0.32 S/m	–	–
296.1 K, x1 = 0.1402	–	1070.6 kg/m3	59.29 mPa·s
296.1 K, x1 = 0.1605	1.18 S/m	–	–
296.1 K, x1 = 0.1766	1.05 S/m and 1.06 S/m	–	–
296.1 K, x1 = 0.2119	0.873 S/m and 0.875 S/m	–	–
296.1 K, x1 = 0.2632	0.628 S/m	–	–
296.1 K, x1 = 0.3076	0.531 S/m and 0.533 S/m	–	–
296.1 K, x1 = 0.4688	0.258 S/m	–	–
297.1 K, x1 = 0.1402	–	1069.9 kg/m3	56.2 mPa·s
297.1 K, x1 = 0.1766	1.08 S/m	–	–
297.1 K, x1 = 0.2119	0.9 S/m	–	–
297.1 K, x1 = 0.2632	0.651 S/m	–	–
298.1 K, x1 = 0.0401	2.16 S/m	–	–
298.1 K, x1 = 0.0586	2.14 S/m	–	–
298.1 K, x1 = 0.0803	1.96 S/m	–	–
298.1 K, x1 = 0.1197	1.56 S/m	1065.5 kg/m3 and 1065.9 kg/m3	46.3 mPa·s and 46.17 mPa·s
298.1 K, x1 = 0.1402	1.38 S/m	1069.3 kg/m3	53.29 mPa·s
298.1 K, x1 = 0.1605	1.25 S/m	1072.8 kg/m3 and 1072.7 kg/m3	59.39 mPa·s and 57.63 mPa·s
298.1 K, x1 = 0.1766	1.11 S/m	–	–
298.1 K, x1 = 0.2119	0.925 S/m and 0.921 S/m	–	–
298.1 K, x1 = 0.2632	0.675 S/m and 0.669 S/m	1081.9 kg/m3 and 1081.7 kg/m3	80.58 mPa·s and 82.1 mPa·s
298.1 K, x1 = 0.3076	0.573 S/m and 0.572 S/m	1084.1 kg/m3	89.42 mPa·s
298.1 K, x1 = 0.3555	0.434 S/m and 0.435 S/m	1085.8 kg/m3	104.1 mPa·s and 104 mPa·s
298.1 K, x1 = 0.4108	0.358 S/m and 0.355 S/m	1087.7 kg/m3	118 mPa·s
298.1 K, x1 = 0.4688	0.287 S/m and 0.254 S/m	–	–
298.1 K, x1 = 0.5001	0.241 S/m and 0.236 S/m	–	–
303.1 K, x1 = 0.1605	–	1069.3 kg/m3	45.8 mPa·s
303.1 K, x1 = 0.2632	–	1078.5 kg/m3	62.15 mPa·s
303.1 K, x1 = 0.3076	–	1080.7 kg/m3	69.23 mPa·s
303.1 K, x1 = 0.3555	–	1082.4 kg/m3	80.49 mPa·s
303.1 K, x1 = 0.4108	–	1084.3 kg/m3	91.61 mPa·s
303.1 K, x1 = 0.5001	0.295 S/m	–	–
308.1 K, x1 = 0.1605	–	1065.9 kg/m3	35.89 mPa·s
308.1 K, x1 = 0.2632	–	1075 kg/m3	48.72 mPa·s
308.1 K, x1 = 0.3076	–	1077.2 kg/m3	54.47 mPa·s
308.1 K, x1 = 0.3555	–	1079 kg/m3	63.27 mPa·s
308.1 K, x1 = 0.4108	–	1080.9 kg/m3	72.28 mPa·s
313.1 K, x1 = 0.1197	–	1055.4 kg/m3	23.09 mPa·s
313.1 K, x1 = 0.1605	–	1062.4 kg/m3	28.53 mPa·s
313.1 K, x1 = 0.2632	–	1072.9 kg/m3	40.23 mPa·s
313.1 K, x1 = 0.3076	–	1072.2 kg/m3	43.26 mPa·s
313.1 K, x1 = 0.3555	–	1075.6 kg/m3	50.46 mPa·s
313.1 K, x1 = 0.4108	–	1077.6 kg/m3	57.88 mPa·s
313.1 K, x1 = 0.5001	0.42 S/m	–	–
318.1 K, x1 = 0.3076	–	1070.1 kg/m3	36.02 mPa·s
318.1 K, x1 = 0.3555	–	1072.2 kg/m3	40.79 mPa·s
318.1 K, x1 = 0.4108	–	1074.2 kg/m3	46.97 mPa·s
323.1 K, x1 = 0.3555	–	1068.8 kg/m3	33.03 mPa·s
323.1 K, x1 = 0.4108	–	1070.8 kg/m3	38.58 mPa·s
323.1 K, x1 = 0.5001	0.58 S/m	–	–

— the NIST ThermoML archive (doi:10.1016/j.jct.2014.04.016)
